Where a SMILES comes first, the peptide text is derived from it. Bridges are numbered along the chain shown (N, C = ends). [ ]: non-standard residue; d: D form. The star is where a group is joined. Phe(4-COOH) = N[C@@H](Cc1ccc(C(=O)O)cc1)C(=O)O; Bip = N[C@@H](Cc1ccc(-c2ccccc2)cc1)C(=O)O; aIle = CC[C@@H](C)[C@H](N)C(=O)O; 4Pal = N[C@@H](Cc1ccncc1)C(=O)O; Cha = N[C@@H](CC1CCCCC1)C(=O)O; dCha = N[C@H](CC1CCCCC1)C(=O)O; Carboxymethyl = O=C(O)C*; Orn = NCCC[C@H](N)C(=O)O; Dab = NCC[C@H](N)C(=O)O; Dap = NC[C@H](N)C(=O)O
The molecules below were run against T1, human PD-1 / PD-L1-Ig binding on Jurkat cell line over-expressing human PD-1 (Jurkat-PD-1) (Homo sapiens, UniProt Q15116) (assay: Jurkat-PD-1 Cell Binding High-Content Screening Assay (CBA)). Conditions: Jurkat-PD-1 cells, PE-labeled PD-L1-Ig 20 nM final; read-out: Jurkat HPD1_PDL1 IC50.
T1 construct: expressed in transfected cells; host or cells: Jurkat
Format: cell-based
Summary of the method: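 Cell-bound PE-labeled PD-L1-Ig (20 nM final, 1 h) measured by high-content imaging after fixation and Hoechst 33342 counterstain. Compound was applied first for 2 h at 37° C. to Jurkat cells over-expressing human PD-1 in DMEM with 10% FCS.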

T1 sequence (Q15116 25-288): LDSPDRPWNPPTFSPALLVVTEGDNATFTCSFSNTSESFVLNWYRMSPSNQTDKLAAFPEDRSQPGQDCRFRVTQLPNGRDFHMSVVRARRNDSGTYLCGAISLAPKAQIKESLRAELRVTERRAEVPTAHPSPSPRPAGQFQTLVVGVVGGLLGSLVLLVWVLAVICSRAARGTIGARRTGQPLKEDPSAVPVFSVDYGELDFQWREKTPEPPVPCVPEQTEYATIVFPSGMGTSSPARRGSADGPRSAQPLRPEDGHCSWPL

| SMILES | IC50 [nM] |
| --- | --- |
| CC(C)C[C@H]1NC(=O)[C@H](CCCN)NC(=O)[C@H](C(C)C)NC(=O)[C@H](Cc2ccc(-c3ccccc3)cc2)NC(=O)[C@H](C(C)C)NC(=O)[C@H](Cc2c[nH]c3ccccc23)NC(=O)[C@H](CC(=O)O)NC(=O)[C@H](Cc2ccncc2)NC(=O)[C@H](CN)NC(=O)CSC[C@@H](C(=O)N[C@@H](C)C(N)=O)NC(=O)[C@H]([C@@H](C)O)NC(=O)[C@H](C(C)C)NC(=O)[C@H](CC2CCCCC2)NC(=O)[C@H](Cc2cnc[nH]2)NC1=O [Compound 1611] | 9.6 |
| CCCC[C@@H]1NC(=O)[C@H](Cc2ccc(-c3ccccc3)cc2)NC(=O)[C@H](C(C)C)NC(=O)[C@H](Cc2cccc(C)c2)NC(=O)[C@H](CC(=O)O)NC(=O)[C@H](Cc2ccc(C(=O)O)cc2)NC(=O)[C@H](Cc2ccncc2)NC(=O)CSC[C@@H](C(=O)N[C@@H](C)C(N)=O)NC(=O)[C@H]([C@@H](C)O)NC(=O)[C@H](C(C)C)NC(=O)[C@H](CC2CCCCC2)NC(=O)[C@H](CCN)NC(=O)[C@@H](CC(C)C)NC(=O)[C@H](CCCN)NC1=O [Compound 1613] | 20.7 |
| Cc1cccc(C[C@@H]2NC(=O)[C@H](CC(=O)O)NC(=O)[C@H](Cc3ccc(C(=O)O)cc3)NC(=O)[C@H](Cc3ccncc3)NC(=O)CSC[C@@H](C(=O)N[C@@H](C)C(N)=O)NC(=O)[C@H]([C@@H](C)O)NC(=O)[C@H](C(C)C)NC(=O)[C@H](CC3CCCCC3)NC(=O)[C@H](CCN)NC(=O)[C@@H](CC(C)C)NC(=O)[C@H](CCCN)NC(=O)[C@H](C3CCCCC3)NC(=O)[C@H](Cc3ccc(-c4ccccc4)cc3)NC(=O)[C@H](C(C)C)NC2=O)c1 [Compound 1614] | 14.4 |
| CCC[C@@H]1NC(=O)[C@H](Cc2ccc(-c3ccccc3)cc2)NC(=O)[C@H](C(C)C)NC(=O)[C@H](Cc2cccc(C)c2)NC(=O)[C@H](CC(=O)O)NC(=O)[C@H](Cc2ccc(C(=O)O)cc2)NC(=O)[C@H](Cc2ccncc2)NC(=O)CSC[C@@H](C(=O)N[C@@H](C)C(N)=O)NC(=O)[C@H]([C@@H](C)O)NC(=O)[C@H](C(C)C)NC(=O)[C@H](CC2CCCCC2)NC(=O)[C@H](CCN)NC(=O)[C@@H](CC(C)C)NC(=O)[C@H](CCCN)NC1=O [Compound 1615] | 15.9 |
| Cc1cccc(C[C@@H]2NC(=O)[C@H](CC(=O)O)NC(=O)[C@H](Cc3ccc(C(=O)O)cc3)NC(=O)[C@H](Cc3ccncc3)NC(=O)CSC[C@@H](C(=O)N[C@@H](C)C(N)=O)NC(=O)[C@H]([C@@H](C)O)NC(=O)[C@H](C(C)C)NC(=O)[C@H](CC3CCCCC3)NC(=O)[C@H](CCN)NC(=O)[C@@H](CC(C)C)NC(=O)[C@H](CCCN)NC(=O)[C@H](c3ccccc3)NC(=O)[C@H](Cc3ccc(-c4ccccc4)cc3)NC(=O)[C@H](C(C)C)NC2=O)c1 [Compound 1616] | 9.3 |
| Cc1cccc(C[C@@H]2NC(=O)[C@H](CC(=O)O)NC(=O)[C@H](Cc3ccc(C(=O)O)cc3)NC(=O)[C@H](Cc3ccncc3)NC(=O)CSC[C@@H](C(=O)N[C@@H](C)C(N)=O)NC(=O)[C@H]([C@@H](C)O)NC(=O)[C@H](C(C)C)NC(=O)[C@H](CC3CCCCC3)NC(=O)[C@H](CCN)NC(=O)[C@@H](CC(C)C)NC(=O)[C@H](CCCN)NC(=O)[C@H](C3CC3)NC(=O)[C@H](Cc3ccc(-c4ccccc4)cc3)NC(=O)[C@H](C(C)C)NC2=O)c1 [Compound 1617] | 8.5 |
| Cc1cccc(C[C@@H]2NC(=O)[C@H](CC(=O)O)NC(=O)[C@H](Cc3ccc(C(=O)O)cc3)NC(=O)[C@H](Cc3ccncc3)NC(=O)CSC[C@@H](C(=O)N[C@@H](C)C(N)=O)NC(=O)[C@H]([C@@H](C)O)NC(=O)[C@H](C(C)C)NC(=O)[C@H](CC3CCCCC3)NC(=O)[C@H](CCN)NC(=O)[C@@H](CC(C)C)NC(=O)[C@H](CCCN)NC(=O)[C@H](C(C)(C)C)NC(=O)[C@H](Cc3ccc(-c4ccccc4)cc3)NC(=O)[C@H](C(C)C)NC2=O)c1 [Compound 1618] | 22.7 |
| CC[C@@H]1NC(=O)[C@H](Cc2ccc(-c3ccccc3)cc2)NC(=O)[C@H](C(C)C)NC(=O)[C@H](Cc2cccc(C)c2)NC(=O)[C@H](CC(=O)O)NC(=O)[C@H](Cc2ccc(C(=O)O)cc2)NC(=O)[C@H](Cc2ccncc2)NC(=O)CSC[C@@H](C(=O)N[C@@H](C)C(N)=O)NC(=O)[C@H]([C@@H](C)O)NC(=O)[C@H](C(C)C)NC(=O)[C@H](CC2CCCCC2)NC(=O)[C@H](CCN)NC(=O)[C@@H](CC(C)C)NC(=O)[C@H](CCCN)NC1=O [Compound 1619] | 14.6 |
| CC[C@@H](C)[C@@H]1NC(=O)[C@H](Cc2ccc(-c3ccccc3)cc2)NC(=O)[C@H](C(C)C)NC(=O)[C@H](Cc2cccc(C)c2)NC(=O)[C@H](CC(=O)O)NC(=O)[C@H](Cc2ccc(C(=O)O)cc2)NC(=O)[C@H](Cc2ccncc2)NC(=O)CSC[C@@H](C(=O)N[C@@H](C)C(N)=O)NC(=O)[C@H]([C@@H](C)O)NC(=O)[C@H](C(C)C)NC(=O)[C@H](CC2CCCCC2)NC(=O)[C@H](CCN)NC(=O)[C@@H](CC(C)C)NC(=O)[C@H](CCCN)NC1=O [Compound 1620] | 5 |
| Cc1cccc(C[C@@H]2NC(=O)[C@H](CC(=O)O)NC(=O)[C@H](Cc3ccc(C(=O)O)cc3)NC(=O)[C@H](Cc3ccncc3)NC(=O)CSC[C@@H](C(=O)N[C@@H](C)C(N)=O)NC(=O)[C@H]([C@@H](C)O)NC(=O)[C@H](C(C)C)NC(=O)[C@H](CC3CCCCC3)NC(=O)[C@H](CCN)NC(=O)[C@@H](CC(C)C)NC(=O)[C@H](CCCN)NC(=O)[C@H](CC3CCCCC3)NC(=O)[C@H](Cc3ccc(-c4ccccc4)cc3)NC(=O)[C@H](C(C)C)NC2=O)c1 [Compound 1621] | 36.7 |
| CCCC[C@@H]1NC(=O)[C@H](Cc2ccc(-c3ccccc3)cc2)NC(=O)[C@H](C(C)C)NC(=O)[C@H](Cc2c[nH]c3ccccc23)NC(=O)[C@H](CC(=O)O)NC(=O)[C@H](Cc2ccc(C(=O)O)cc2)NC(=O)[C@H](Cc2ccncc2)NC(=O)CSC[C@@H](C(=O)N[C@@H](C)C(N)=O)NC(=O)[C@H]([C@@H](C)O)NC(=O)[C@H](C(C)C)NC(=O)[C@H](CC2CCCCC2)NC(=O)[C@H](Cc2cnc[nH]2)NC(=O)[C@@H](CC(C)C)NC(=O)[C@H](CCCN)NC1=O [Compound 1622] | 36 |
| CCC[C@@H]1NC(=O)[C@H](Cc2ccc(-c3ccccc3)cc2)NC(=O)[C@H](C(C)C)NC(=O)[C@H](Cc2c[nH]c3ccccc23)NC(=O)[C@H](CC(=O)O)NC(=O)[C@H](Cc2ccc(C(=O)O)cc2)NC(=O)[C@H](Cc2ccncc2)NC(=O)CSC[C@@H](C(=O)N[C@@H](C)C(N)=O)NC(=O)[C@H]([C@@H](C)O)NC(=O)[C@H](C(C)C)NC(=O)[C@H](CC2CCCCC2)NC(=O)[C@H](Cc2cnc[nH]2)NC(=O)[C@@H](CC(C)C)NC(=O)[C@H](CCCN)NC1=O [Compound 1623] | 27 |
| CC[C@@H](C)[C@@H]1NC(=O)[C@H](Cc2ccc(-c3ccccc3)cc2)NC(=O)[C@H](C(C)C)NC(=O)[C@H](Cc2c[nH]c3ccccc23)NC(=O)[C@H](CC(=O)O)NC(=O)[C@H](Cc2ccc(C(=O)O)cc2)NC(=O)[C@H](Cc2ccncc2)NC(=O)CSC[C@@H](C(=O)N[C@@H](C)C(N)=O)NC(=O)[C@H]([C@@H](C)O)NC(=O)[C@H](C(C)C)NC(=O)[C@H](CC2CCCCC2)NC(=O)[C@H](CCN)NC(=O)[C@@H](CC2CCCCC2)NC(=O)[C@H](CCCN)NC1=O [Compound 1624] ({CH2CO}-[4Pal][Phe(4-COOH)]DWV[Bip][aIle][Orn][dCha][Dab][Cha]VTCA-NH2; thioether N-14) | 26.9 |
| CC[C@@H](C)[C@@H]1NC(=O)[C@H](Cc2ccc(-c3ccccc3)cc2)NC(=O)[C@H](C(C)C)NC(=O)[C@H](Cc2c[nH]c3ccccc23)NC(=O)[C@H](CC(=O)O)NC(=O)[C@H](Cc2ccc(OCC(=O)O)cc2)NC(=O)[C@H](Cc2ccc(OCC(=O)O)cc2)NC(=O)CSC[C@@H](C(=O)N[C@@H](C)C(N)=O)NC(=O)[C@H]([C@@H](C)O)NC(=O)[C@H](C(C)C)NC(=O)[C@H](CC2CCCCC2)NC(=O)[C@H](CCN)NC(=O)[C@@H](CC2CCCCC2)NC(=O)[C@H](CCCN)NC1=O [Compound 1625] ({CH2CO}-Y(Carboxymethyl)Y(Carboxymethyl)DWV[Bip][aIle][Orn][dCha][Dab][Cha]VTCA-NH2; thioether N-14) | 35 |
| CC[C@@H](C)[C@@H]1NC(=O)[C@H](Cc2ccc(-c3ccccc3)cc2)NC(=O)[C@H](C(C)C)NC(=O)[C@H](Cc2c[nH]c3ccccc23)NC(=O)[C@H](CC(=O)O)NC(=O)[C@H](Cc2ccc(C(=O)O)cc2)NC(=O)[C@H](Cc2ccc(OCC(=O)O)cc2)NC(=O)CSC[C@@H](C(=O)N[C@@H](C)C(N)=O)NC(=O)[C@H]([C@@H](C)O)NC(=O)[C@H](C(C)C)NC(=O)[C@H](CC2CCCCC2)NC(=O)[C@H](CCN)NC(=O)[C@@H](CC2CCCCC2)NC(=O)[C@H](CCCN)NC1=O [Compound 1626] ({CH2CO}-Y(Carboxymethyl)[Phe(4-COOH)]DWV[Bip][aIle][Orn][dCha][Dab][Cha]VTCA-NH2; thioether N-14) | 51.9 |
| CC[C@@H](C)[C@@H]1NC(=O)[C@H](Cc2ccc(-c3ccccc3)cc2)NC(=O)[C@H](C(C)C)NC(=O)[C@H](Cc2c[nH]c3ccccc23)NC(=O)[C@H](CC(=O)O)NC(=O)[C@H](Cc2ccc(OCC(=O)O)cc2)NC(=O)[C@H](CN)NC(=O)CSC[C@@H](C(=O)N[C@@H](C)C(N)=O)NC(=O)[C@H]([C@@H](C)O)NC(=O)[C@H](C(C)C)NC(=O)[C@H](CC2CCCCC2)NC(=O)[C@H](CCN)NC(=O)[C@@H](CC2CCCCC2)NC(=O)[C@H](CCCN)NC1=O [Compound 1627] ({CH2CO}-[Dap]Y(Carboxymethyl)DWV[Bip][aIle][Orn][dCha][Dab][Cha]VTCA-NH2; thioether N-14) | 19.3 |
| CC[C@@H](C)[C@@H]1NC(=O)[C@H](Cc2ccc(-c3ccccc3)cc2)NC(=O)[C@H](C(C)C)NC(=O)[C@H](Cc2c[nH]c3ccccc23)NC(=O)[C@H](CC(=O)O)NC(=O)[C@H](Cc2ccc(OCC(=O)O)cc2)NC(=O)[C@H](Cc2ccncc2)NC(=O)CSC[C@@H](C(=O)N[C@@H](C)C(N)=O)NC(=O)[C@H]([C@@H](C)O)NC(=O)[C@H](C(C)C)NC(=O)[C@H](CC2CCCCC2)NC(=O)[C@H](CCN)NC(=O)[C@@H](CC2CCCCC2)NC(=O)[C@H](CCCN)NC1=O [Compound 1628] ({CH2CO}-[4Pal]Y(Carboxymethyl)DWV[Bip][aIle][Orn][dCha][Dab][Cha]VTCA-NH2; thioether N-14) | 24.9 |
